In assay [1] the test system is P. aeruginosa strains PAO1 and PA14. Kind of assay: Inhibitory activity against P. aeruginosa, strain not separated in text. It is filed as cell-based, Pseudomonas aeruginosa. Particulars: for inhibitory activity against P. aeruginosa, in words (SAR): compared with promysalin; for IC50: Pseudomonas aeruginosa, PAO1 and PA14, read-out: IC50 / inactive up to concentration. The protocol:
(§1) P. aeruginosa PA01, and PA14 were gifts from Prof. George O'Toole (Dartmouth Medical School). Bacterial cultures were grown from freezer stocks overnight (16-24 hr) with shaking at 37° C. in Tryptic Soy Broth (TSB) media (10 mL). Growth curves were obtained for PA01 and PA14 to determine the OD of each strain in exponential growth; OD readings at 595 nm were taken every 10 minutes for 6 hours in a plate reader at 37° C. with shaking and repeated six times. (see FIGS. 6A and 6B)
(§2) Compounds were serially diluted in sterile DI water from a stock solution (1 mM in 10% DMSO/90% H2O) to yield twenty-four test concentrations. Overnight cultures were diluted 1:100 in 5 mL fresh media and grown with shaking at 37° C. to an OD of 0.32 (see growth curves). Bacteria were diluted to a concentration of 0.004 using the following equation: (x μL O/N)(OD reading)=(0.004)(volume needed) and 100 μL was inoculated into each well of a flat-bottom 96-well plate (Corning 3370) containing 100 μL of compound solution. Plates were incubated statically at 37° C. for 24 hours, upon which time the OD at 595 nm was measured using a plate reader. IC50 values were calculated by fitting the OD readings vs. concentration with a 4 parameter logistic model. Controls were prepared by serially diluting a 10% DMSO/90% H2O the same as the compound stock solution. Compounds were tested in triplicate from separate O/N cultures and results averaged.
With a library of sixteen analogs in hand, all of the compounds were evaluated for inhibitory activity against P. aeruginosa strains PAO1 and PA14. […] The inhibition data supported our initial hypothesis that the conformation of promysalin is exquisitely linked to its inhibition of PA. Of our modifications to the proline structure, fluorination (9)—being the smallest steric perturbation, was the only compound with equipotency to that of promysalin.

The subject of another assay is P. aeruginosa PA14. As to the kind of experiment: IC50 assay (OD595, 24 h) against PA14. It is filed as cell-based, Pseudomonas aeruginosa. To be noted: for IC50: Pseudomonas aeruginosa. The method, then: as §1, §2
Compounds were serially diluted in sterile DI water from a stock solution (10% DMSO/H2O) yielding 24 test concentrations. Bacteria were diluted to a final concentration of 0.004 from regrown overnight culture according to the following equation: (xμL bacterial culture)(OD reading)=(0.004)(total volume needed) and 100 μL was inoculated into each well of a flat-bottom 96-well plate (Corning 3370) containing 100 μL of compound solution. Plates were incubated statically at 37° C. for 24 hours upon which time OD at 595 nm was measured using a plate reader (Spectra Max 190). IC50 values were calculated using OD values and concentrations with a 4-parameter logistic model. Control experiments used a 10% DMSO/H2O stock serially diluted to the same 24 concentrations. Compounds were tested in triplicate from three independent overnight cultures.

The next assay has as its system P. aeruginosa PA01. As to the kind of experiment: IC50 assay (OD595, 24 h) against PA01. The class given is cell-based. To be noted: Pseudomonas aeruginosa. The method, then: P. aeruginosa PA01, and PA14 were gifts from Prof. George O'Toole (Dartmouth Medical School). Bacterial cultures were grown from freezer stocks overnight (16-24 hr) with shaking at 37° C. in Tryptic Soy Broth (TSB) media (10 mL). Growth curves were obtained for PA01 and PA14 to determine the OD of each strain in exponential growth; OD readings at 595 nm were taken every 10 minutes for 6 hours in a plate reader at 37° C. with shaking and repeated six times. (see FIGS. 6A and 6B) Compounds were serially diluted in sterile DI water from a stock solution (1 mM in 10% DMSO/90% H2O) to yield twenty-four test concentrations. Overnight cultures were diluted 1:100 in 5 mL fresh media and grown with shaking at 37° C. to an OD of 0.32 (see growth curves). Bacteria were diluted to a concentration of 0.004 using the following equation: (x μL O/N)(OD reading)=(0.004)(volume needed) and 100 μL was inoculated into each well of a flat-bottom 96-well plate (Corning 3370) containing 100 μL of compound solution. Plates were incubated statically at 37° C. for 24 hours, upon which time the OD at 595 nm was measured using a plate reader. IC50 values were calculated by fitting the OD readings vs. concentration with a 4 parameter logistic model. Controls were prepared by serially diluting a 10% DMSO/90% H2O the same as the compound stock solution. Compounds were tested in triplicate from separate O/N cultures and results averaged.

Setting [2] is: average of EXPT 1-3, read-out: IC50 PA01 AVG.
Where [3] appears, read: averages of three independent experiments, read-out: IC50 PA01.
[4] abbreviates: single trial 1, read-out: IC50 PA01 EXPT 1.
Setting [5] is: single trial 2, read-out: IC50 PA01 EXPT 2.
[6] abbreviates: single trial 3, read-out: IC50 PA01 EXPT 3.
Setting [7] is: average of EXPT 1-3, read-out: IC50 PA14 AVG.
The mark [8] stands for this setting: averages of three independent experiments, read-out: IC50 PA14.
Setting [9] is: single trial 1, read-out: IC50 PA14 EXPT 1.
Where [10] appears, read: single trial 2, read-out: IC50 PA14 EXPT 2.
Setting [11] is: single trial 3, read-out: IC50 PA14 EXPT 3.

Each structure is given as a SMILES string. Where two headings read alike, the source gives them in different places.

For the compound `CCCCCC[C@H](CCCCC[C@@H](O)C(N)=O)OC(=O)[C@@H]1CC[C@@H]2Oc3ccccc3C(=O)N21` (single isomer, unassigned) [2a], in assay [1], the “inhibitory activity against P. aeruginosa, in words (SAR)” value was “no biological activity”.
Still for that read-out and setting: as for `CCCCCC[C@H](CCCCC[C@@H](O)C(N)=O)OC(=O)[C@@H]1CC[C@H]2Oc3ccccc3C(=O)N21` (single isomer, unassigned) [2b], the entry is “no biological activity”.
As for `C#CCCC1(CCNC(=O)[C@H](O)CCCCC[C@@H](CCCCCC)OC(=O)[C@@H]2CC=CN2C(=O)c2ccccc2O)N=N1` [(−)-2, (7R,13R)-14-((2-(3-(but-3-yn-1-yl)-3H-diazirin-3-yl)ethyl)amino)-13-hydroxy-14-oxotetradecan-7-yl (S)-1-(2-hydroxybenzoyl)-2,3-dihydro-1H-pyrrole-2-carboxylate], the “less active than promysalin” value in assay [1] is roughly 10 ×. In addition, the IC50 with P. aeruginosa PA14 (read-out: IC50 in PA14) was found to be 1.7 µM.
Regarding `C#CCNC(=O)[C@H](O)CCCCC[C@@H](CCCCCC)OC(=O)[C@@H]1CC=CN1C(=O)c1ccccc1O` [(−)-S4, (7R,13R)-13-hydroxy-14-oxo-14-(prop-2-yn-1-ylamino)tetradecan-7-yl (S)-1-(2-hydroxybenzoyl)-2,3-dihydro-1H-pyrrole-2-carboxylate], in the assay on P. aeruginosa PA14, the “activity relative to the natural product” value is “three-fold less active”. Also, the IC50 with P. aeruginosa PA14 (preliminary screening for probe design, read-out: IC50 in PA14) was 0.218 µM.
In the case of `C#CCCC1(CCNC(=O)[C@H](O)CCCCC[C@@H](CCCCCC)OC(=O)[C@@H]2CC=CN2C(=O)c2ccccc2)N=N1` [(−)-S12, (7R,13R)-14-((2-(3-(but-3-yn-1-yl)-3H-diazirin-3-yl)ethyl)amino)-13-hydroxy-14-oxotetradecan-7-yl (S)-1-benzoyl-2,3-dihydro-1H-pyrrole-2-carboxylate], the “inhibitory activity against P. aeruginosa, in words (SAR)” value in assay [1] was “inactive”.
As to `CCCCCC[C@@H](O)CCCCC[C@@H](O)C(N)=O` [compound 4, (2R,8R)-2,8-dihydroxytetradecanamide], the IC50 in assay [1] was greater than 250 µM.
On the same count and under the same terms, as for `COC(=O)[C@@H]1CC=CN1C(=O)c1ccccc1O` [compound 5, Methyl (2S)-1-(2-hydroxybenzoyl)-2,3-dihydro-1H-pyrrole-2-carboxylate], the figure is greater than 250 µM.
`CCCCCC[C@H](CCCCC[C@@H](O)C(N)=O)OC(=O)[C@@H]1CCCN1C(=O)c1ccccc1O` [compound 6, (1R,7R)-1-carbamoyl-1-hydroxytridecan-7-yl (2S)-1-(2-hydroxybenzoyl)pyrrolidine-2-carboxylate]: in assay [1], the “inhibitory activity against P. aeruginosa, in words (SAR)” value is recorded as “modest activity”. The IC50 in the assay with P. aeruginosa PA01 (setting [2]) came to 111 µM; in the assay on P. aeruginosa PA01 (setting [3]) it was 111 µM; in the assay on P. aeruginosa PA01 (setting [4]) it was 113 µM; in the assay with P. aeruginosa PA01 (setting [5]) it was 98.9 µM; in the assay on P. aeruginosa PA01 (setting [6]) it was 121 µM; in the assay on P. aeruginosa PA14 (setting [7]), 28.3 µM. The IC50 with P. aeruginosa PA14 (setting [8]) turned out to be 28 µM; in the assay on P. aeruginosa PA14 (setting [9]) it was 24.3 µM; in the assay on P. aeruginosa PA14 (setting [10]), 27.1 µM; with P. aeruginosa PA14 (setting [11]) it was 33.7 µM.
Turning to `CCCCCC[C@H](CCCCC[C@@H](O)C(N)=O)OC(=O)[C@@H]1CCCCN1C(=O)c1ccccc1O` [compound 7, (1R,7R)-1-carbamoyl-1-hydroxytridecan-7-yl (2S)-1-(2-hydroxybenzoyl)piperidine-2-carboxylate], the “inhibitory activity against P. aeruginosa, in words (SAR)” value in assay [1] is “inactive”.
The same measure, in the same setting: as for `CCCCCC[C@H](CCCCC[C@@H](O)C(N)=O)OC(=O)[C@@H]1C[C@@H](O)CN1C(=O)c1ccccc1O` [compound 8, (1R,7R)-1-carbamoyl-1-hydroxytridecan-7-yl (2S,4R)-4-hydroxy-1-(2-hydroxybenzoyl)pyrrolidine-2-carboxylate], the entry is “inactive”.
On to `CCCCCC[C@H](CCCCC[C@@H](O)C(N)=O)OC(=O)[C@@H]1CC(F)=CN1C(=O)c1ccccc1O` [compound 9, (7R,13R)-14-amino-13-hydroxy-14-oxotetradecan-7-yl (S)-4-fluoro-1-(2-hydroxybenzoyl)-2,3-dihydro-1H-pyrrole-2-carboxylate], for which, in assay [1], the “inhibitory activity against P. aeruginosa, in words (SAR)” value is reported as “equipotency”. Further, the IC50 in the assay with P. aeruginosa PA01 (setting [2]) is 7.7 µM; in the assay with P. aeruginosa PA01 (setting [3]) it was 7.7 µM; with P. aeruginosa PA01 (setting [4]), 8.11 µM; in the assay with P. aeruginosa PA01 (setting [5]), 8.57 µM; in the assay on P. aeruginosa PA01 (setting [6]), 6.41 µM; in the assay on P. aeruginosa PA14 (setting [7]), 0.019 µM. For the same compound, the IC50 in the assay on P. aeruginosa PA14 (setting [8]) turned out to be 0.019 µM; in the assay on P. aeruginosa PA14 (setting [9]), 0.04 µM; with P. aeruginosa PA14 (setting [10]), 0.01 µM; in the assay on P. aeruginosa PA14 (setting [11]), 0.01 µM.
As for `CCCCCC[C@H](CCCCC[C@@H](O)C(N)=O)OC(=O)[C@@H]1CC=CN1C(=O)c1cccc(O)c1` [compound 12, (7R,13R)-14-amino-13-hydroxy-14-oxotetradecan-7-yl (S)-1-(3-hydroxybenzoyl)-2,3-dihydro-1H-pyrrole-2-carboxylate], in assay [1], the “inhibitory activity against P. aeruginosa, in words (SAR)” value is reported as “largely unforgiving”.
On the same count and under the same terms, as for `CCCCCC[C@H](CCCCC[C@@H](O)C(N)=O)OC(=O)[C@@H]1CC=CN1C(=O)c1ccc(O)cc1` [compound 13, (1R,7R)-1-carbamoyl-1-hydroxytridecan-7-yl (2S)-1-(4-hydroxybenzoyl)-2,3-dihydro-1H-pyrrole-2-carboxylate], the entry is “largely unforgiving”; as for `CCCCCC[C@H](CCCCC[C@@H](O)C(N)=O)OC(=O)[C@@H]1CC=CN1C(=O)c1ccccc1` [compound 14, (1R,7R)-1-carbamoyl-1-hydroxytridecan-7-yl (2S)-1-benzoyl-2,3-dihydro-1H-pyrrole-2-carboxylate], “largely unforgiving”.
Same read-out and setting: for `CCCCCC[C@H](CCCCC[C@@H](O)C(N)=O)OC(=O)[C@@H]1CC=CN1C(=O)c1c(O)cccc1OC` [compound 15, (7R,13R)-14-amino-13-hydroxy-14-oxotetradecan-7-yl (S)-1-(2-hydroxy-6-methoxybenzoyl)-2,3-dihydro-1H-pyrrole-2-carboxylate] the value was “not tolerated”; for `CCCCCC[C@H](CCCCC[C@@H](O)C(N)=O)OC(=O)[C@@H]1CC=CN1C(=O)c1cc(OC)c(OC)c(OC)c1` [compound 16, (1R,7R)-1-carbamoyl-1-hydroxytridecan-7-yl (2S)-1-(3,4,5-trimethoxybenzoyl)-2,3-dihydro-1H-pyrrole-2-carboxylate], “not tolerated”; for `CCCCCC[C@H](CCCCC[C@@H](O)C(N)=O)OC(=O)[C@@H]1CC=CN1C(=O)c1ccccc1[N+](=O)[O-]` [compound 17, (7R,13R)-14-amino-13-hydroxy-14-oxotetradecan-7-yl (S)-1-(2-nitrobenzoyl)-2,3-dihydro-1H-pyrrole-2-carboxylate], “largely unforgiving”.

(Values after patent US10647671B2, “Promysalin analogues and methods of use thereof” (Temple University—Of The Commonwealth System of Higher …, priority 2016, dated 2020).)
